Assays:
Type in all cases: in vivo
Soya beans = assay: Pre-emergence test/Greenhouse, Soya beans; settings: in vivo
How it was run: (§1)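 Seeds sown in normal soil were watered about 24 h later with an aqueous emulsion of compound (solvent plus emulsifier), keeping water volume per area constant so dose is set by application rate per unit area. Damage was rated after three weeks as % versus untreated control (0% = no action).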

Digitaria = assay: Post-emergence test/greenhouse, Digitaria; settings: greenhouse, after three weeks
Method: (§2) Solvent: 5 parts by weight of acetone
(§3) Emulsifier: 1 part by weight of alkylaryl polyglycol ether
(§4) To produce a suitable preparation of active compound, 1 part by weight of active compound is mixed with the stated amount of solvent, the stated amount of emulsifier is added and the concentrate is diluted with water to the desired concentration.
(§5) Test plants which have a height of 5-15 cm are sprayed with the preparation of the active compound in such a way as to apply the particular amounts of active compound desired per unit area. The concentration of the spray liquor is chosen so that the particular amounts of active compound desired are applied in 2000 l of water/ha.
(§6) After three weeks, the degree of damage to the plants is rated in % damage in comparison to the development of the untreated control.
(§7) 0%=no action (like untreated control)

Matricaria [1] = assay: Post-emergence test/greenhouse, Matricaria; settings: greenhouse, after three weeks
Method: as §2, §3, §4, §5, §6, §7

Sorghum [2] = assay: Pre-emergence test/Greenhouse, Sorghum; settings: after three weeks
How it was run: as §1

Matricaria [3] = assay: Pre-emergence test/Greenhouse, Matricaria; settings: after three weeks
How it was run: as §1

Lolium [4] = assay: Post-emergence test/greenhouse, Lolium; settings: greenhouse, after three weeks
Method: as §2, §3, §4, §5, §6, §7

Maize [5] = assay: Post-emergence test/greenhouse, Maize; settings: greenhouse, after three weeks
Method: as §2, §3, §4, §5, §6, §7

Stellaria = assay: Post-emergence test/greenhouse, Stellaria; settings: greenhouse, after three weeks
Method: as §2, §3, §4, §5, §6, §7

Maize [6] = assay: Pre-emergence test/Greenhouse, Maize
How it was run: as §1

weeds [7] = assay: Pre-emergence test (greenhouse), activity against weeds; settings: in words
How it was run: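 Compound formulated in acetone with alkylaryl polyglycol ether emulsifier, diluted in water, and watered onto soil about 24 h after sowing, dosed by application rate per unit area. Damage rated after three weeks as % versus untreated control (0% = no action).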

Gallium = assay: Post-emergence test/greenhouse, Gallium; settings: greenhouse, after three weeks
Method: as §2, §3, §4, §5, §6, §7

weeds [8] = assay: Post-emergence test (greenhouse), activity against weeds; settings: in words
Method: as §2, §3, §4, §5, §6, §7

Echinochloa = assay: Post-emergence test/greenhouse, Echinochloa; settings: greenhouse, after three weeks
Method: as §2, §3, §4, §5, §6, §7

Ambrosia = assay: Pre-emergence test/Greenhouse, Ambrosia; settings: after three weeks
How it was run: as §1

Lolium [9] = assay: Pre-emergence test/Greenhouse, Lolium; settings: after three weeks
How it was run: as §1

Sorghum [10] = assay: Post-emergence test/greenhouse, Sorghum; settings: greenhouse, after three weeks
Method: as §2, §3, §4, §5, §6, §7

Amaranthus = assay: Post-emergence test/greenhouse, Amaranthus; settings: greenhouse, after three weeks
Method: as §2, §3, §4, §5, §6, §7

Solanum = assay: Pre-emergence test/Greenhouse, Solanum; settings: after three weeks
How it was run: as §1

Poa = assay: Pre-emergence test/Greenhouse, Poa; settings: after three weeks
How it was run: as §1

| SMILES | degree of damage to the plants (% damage vs untreated control), Soya beans (Soya beans) [%] | degree of damage, Digitaria (Digitaria; 60 g of ai./ha) [%] | degree of damage, Matricaria (Matricaria [1]; 60 g of ai./ha) [%] | degree of damage, Lolium (Lolium [4]; 60 g of ai./ha) [%] | degree of damage, Maize (Maize [5]; 60 g of ai./ha) [%] | degree of damage, Stellaria (Stellaria; 60 g of ai./ha) [%] | degree of damage to the plants (% damage vs untreated control), Maize (Maize [6]; in vivo) [%] | activity against weeds (weeds [7]) | degree of damage, Gallium (Gallium; 60 g of ai./ha) [%] | activity against weeds (weeds [8]) | degree of damage, Echinochloa (Echinochloa; 60 g of ai./ha) [%] | degree of damage, Sorghum (Sorghum [10]; 60 g of ai./ha) [%] | degree of damage to the plants (% damage vs untreated control), Sorghum (Sorghum [2]; 30 g of ai./ha) [%] | degree of damage to the plants (% damage vs untreated control), Matricaria (Matricaria [3]; 30 g of ai./ha) [%] | degree of damage, Amaranthus (Amaranthus; 60 g of ai./ha) [%] | degree of damage to the plants (% damage vs untreated control), Solanum (Solanum; 30 g of ai./ha) [%] | degree of damage to the plants (% damage vs untreated control), Poa (Poa; 30 g of ai./ha) [%] | degree of damage to the plants (% damage vs untreated control), Ambrosia (Ambrosia; 30 g of ai./ha) [%] | degree of damage to the plants (% damage vs untreated control), Lolium (Lolium [9]; 30 g of ai./ha) [%] | also measured |
| --- | --- | --- | --- | --- | --- | --- | --- | --- | --- | --- | --- | --- | --- | --- | --- | --- | --- | --- | --- | --- |
| CCOC(=O)c1cccc(C)c1S(=O)(=O)NC(=O)n1nc(SC)n(C)c1=O [Example 7] | 0 | 95 | 95 | 95 | 15 | 100 | 0 | very strong activity against weeds | 95 | very strong activity against weeds | 95 | 100 |  |  |  |  |  |  |  | degree of damage to the plants (% damage vs untreated control), Sorghum (Sorghum [2]; 60 g of ai./ha): 95%; degree of damage to the plants (% damage vs untreated control), Matricaria (Matricaria [3]; 60 g of ai./ha): 95%; degree of damage to the plants (% damage vs untreated control), Ambrosia (Ambrosia; 60 g of ai./ha): 95%; degree of damage to the plants (% damage vs untreated control), Lolium (Lolium [9]; 60 g of ai./ha): 95% |
| CCOC(=O)c1scc(C)c1S(=O)(=O)NC(=O)n1nc(OCC)n(C)c1=O [Example 54] |  |  | 100 | 95 | 30 | 100 | 0 | very strong activity against weeds | 85 | very strong activity against weeds | 95 | 95 | 80 | 95 | 100 | 95 | 95 | 95 | 95 |  |
| CCc1nn(C(=O)NS(=O)(=O)c2c(C)csc2C(=O)OC)c(=O)n1C [Example 5] | 20 |  |  |  |  |  | 0 | very strong activity against weeds |  | very strong activity against weeds |  |  | 90 | 95 |  | 95 | 95 | 95 | 95 | degree of damage, Digitaria (Digitaria; 30 g of ai./ha): 95%; degree of damage, Matricaria (Matricaria [1]; 30 g of ai./ha): 95%; degree of damage, Lolium (Lolium [4]; 30 g of ai./ha): 70%; degree of damage, Maize (Maize [5]; 30 g of ai./ha): 10%; degree of damage, Amaranthus (Amaranthus; 30 g of ai./ha): 100%; degree of damage, Stellaria (Stellaria; 30 g of ai./ha): 90%; degree of damage, Echinochloa (Echinochloa; 30 g of ai./ha): 80%; degree of damage, Sorghum (Sorghum [10]; 30 g of ai./ha): 90% |
| CCOc1nn(C(=O)NS(=O)(=O)c2c(C)csc2C(=O)OC)c(=O)n1C [Example 1, 5-ethoxy-4-methyl-2-(4-methyl-2-methoxycarbonyl-thien-3-yl-sulphonylaminocarbonyl)-2,4-dihydro-3H-1,2,4-triazol-3-one] |  |  |  |  |  |  |  | very strong activity against weeds |  | very strong activity against weeds |  |  | 90 | 95 |  | 95 | 95 | 95 | 95 | degree of damage, Digitaria (Digitaria; 125 g of ai./ha): 95%; degree of damage, Matricaria (Matricaria [1]; 125 g of ai./ha): 100%; degree of damage, Lolium (Lolium [4]; 125 g of ai./ha): 90%; degree of damage, Maize (Maize [5]; 125 g of ai./ha): 60%; degree of damage, Amaranthus (Amaranthus; 125 g of ai./ha): 100%; degree of damage, Stellaria (Stellaria; 125 g of ai./ha): 100%; degree of damage to the plants (% damage vs untreated control), Maize (Maize [6]; pre-emergence, 30 g of ai./ha, after three weeks): 10%; degree of damage, Echinochloa (Echinochloa; 125 g of ai./ha): 95%; degree of damage, Sorghum (Sorghum [10]; 125 g of ai./ha): 95% |
| COC(=O)c1cccc(C)c1S(=O)(=O)NC(=O)n1nc(OC)n(C2CC2)c1=O [Example 164] | 0 | 60 | 100 | 70 |  | 95 | 20 | very strong activity against weeds | 90 | very strong activity against weeds | 80 | 95 |  |  | 100 |  |  |  |  | degree of damage to the plants (% damage vs untreated control), Sorghum (Sorghum [2]; 8 g of ai./ha): 90%; degree of damage to the plants (% damage vs untreated control), Matricaria (Matricaria [3]; 8 g of ai./ha): 70%; degree of damage to the plants (% damage vs untreated control), Solanum (Solanum; 8 g of ai./ha): 95%; degree of damage to the plants (% damage vs untreated control), Poa (Poa; 8 g of ai./ha): 95%; degree of damage to the plants (% damage vs untreated control), Ambrosia (Ambrosia; 8 g of ai./ha): 100%; degree of damage to the plants (% damage vs untreated control), Lolium (Lolium [9]; 8 g of ai./ha): 95% |
| CCSc1nn(C(=O)NS(=O)(=O)c2c(C)cccc2C(=O)OC)c(=O)n1C [Example 141] | 0 |  |  |  |  |  | 30 | very strong activity against weeds |  | very strong activity against weeds |  |  |  |  |  |  |  |  |  | degree of damage, Digitaria (Digitaria; 30 g of ai./ha): 70%; degree of damage, Matricaria (Matricaria [1]; 30 g of ai./ha): 70%; degree of damage to the plants (% damage vs untreated control), Sorghum (Sorghum [2]; 15 g of ai./ha): 80%; degree of damage to the plants (% damage vs untreated control), Matricaria (Matricaria [3]; 15 g of ai./ha): 80%; degree of damage, Maize (Maize [5]; 30 g of ai./ha): 10%; degree of damage, Amaranthus (Amaranthus; 30 g of ai./ha): 100%; degree of damage, Stellaria (Stellaria; 30 g of ai./ha): 95%; degree of damage to the plants (% damage vs untreated control), Solanum (Solanum; 15 g of ai./ha): 90%; degree of damage, Gallium (Gallium; 30 g of ai./ha): 90%; degree of damage to the plants (% damage vs untreated control), Poa (Poa; 15 g of ai./ha): 80%; degree of damage, Echinochloa (Echinochloa; 30 g of ai./ha): 90%; degree of damage to the plants (% damage vs untreated control), Ambrosia (Ambrosia; 15 g of ai./ha): 90%; degree of damage to the plants (% damage vs untreated control), Lolium (Lolium [9]; 15 g of ai./ha): 90%; degree of damage, Sorghum (Sorghum [10]; 30 g of ai./ha): 90% |
| CCOn1c(CC)nn(C(=O)NS(=O)(=O)c2c(C)csc2C(=O)OC)c1=O [Example 38] |  | 70 | 95 |  | 10 | 95 | 0 | very strong activity against weeds |  | very strong activity against weeds | 90 | 95 |  |  | 100 |  |  |  |  | degree of damage to the plants (% damage vs untreated control), Sorghum (Sorghum [2]; 60 g of ai./ha): 60%; degree of damage to the plants (% damage vs untreated control), Matricaria (Matricaria [3]; 60 g of ai./ha): 95%; degree of damage to the plants (% damage vs untreated control), Solanum (Solanum; 60 g of ai./ha): 95%; degree of damage to the plants (% damage vs untreated control), Poa (Poa; 60 g of ai./ha): 70%; degree of damage to the plants (% damage vs untreated control), Ambrosia (Ambrosia; 60 g of ai./ha): 95%; degree of damage to the plants (% damage vs untreated control), Lolium (Lolium [9]; 60 g of ai./ha): 95% |

— patent publication US6441195B1, “Substituted sulphonylamino(thio) carbonyl compounds” (Bayer Aktiengesellschaft, priority 1995, dated 2002)
